Test results reported in patent US6525001B1, “Substituted pyrimidine and pyridine herbicides” (Mid-American Commercialization Corporation, priority 1997, dated 2003).

Columns and labels:
Experiment in all cases: Test B pre-/postemergence
Format in all cases: in vivo
Parameters in all cases: key: 0 is no effect; 10 is complete control
[1] = system: blackgrass (Alopecurus myosuroides); conditions: for Blackgrass plant response rating: Preemergence
Outline: (§1)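 Response scores run from 0, meaning no effect, to 10, meaning complete control, assigned by eye relative to controls twelve to sixteen days after spraying. Treatment was both preemergence on planted seed and postemergence on plants at the 1- to 4-leaf stage.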

[2] = system: crabgrass (Digitaria sanguinalis); conditions: for Crabgrass plant response rating: Preemergence
Outline: as §1

[3] = system: purple nutsedge (Cyperus rotundus)
Outline: as §1

[4] = system: wheat (Triticum aestivum)
Outline: as §1

[5] = system: cocklebur (Xanthium strumarium); conditions: for Cocklebur plant response rating: Preemergence
Outline: as §1

corn (Zea mays) = conditions: for Corn plant response rating: Preemergence
Outline: as §1

[6] = system: pigweed (Amaranthus retroflexus)
Outline: as §1

wild oat (Avena fatua) = system: wild oat (Avena fatua)
Outline: as §1

soybean (Glycine max) = system: soybean (Glycine max)
Outline: as §1

[7] = system: giant foxtail (Setaria faberii)
Outline: as §1

[8] = system: momingglory (Ipomoea hederacea); conditions: for Morningglory plant response rating: Preemergence
Outline: as §1

[9] = system: broadleaf signalgrass (Brachiaria decumbens); conditions: for B. signalgrass plant response rating: Preemergence
Outline: as §1

[10] = system: velvetleaf (Abutilon theophrasti)
Outline: as §1

[11] = system: sugar beet (Beta vulgaris)
Outline: as §1

[12] = Rate 250 g/ha, Postemergence (so in the source)

Q: Which “Plant response rating, Blackgrass” value ([1]; Rate 62 g/ha, Postemergence) does the source give for `Cc1cnc(-n2cnc(C(F)(F)F)c2)nc1Cc1cccc(C(F)(F)F)c1` [Compound 44] here?
A: 4

Q: And the “Blackgrass plant response rating” value ([1]; Rate 62 g/ha)?
A: 5

Q: And the “Plant response rating, Blackgrass” value ([1]; Rate 125 g/ha, Postemergence)?
A: 5

Q: And the “Blackgrass plant response rating” value ([1]; Rate 125 g/ha)?
A: 6

Q: What about the “Plant response rating, Blackgrass” value ([1]; Rate 250 g/ha, Postemergence) of the same compound?
A: 7

Q: What about the “Plant response rating, Blackgrass” value [1, 12] of the same compound?
A: 9

Q: And the “Plant response rating, Crabgrass” value ([2]; Rate 62 g/ha, Postemergence)?
A: 3

Q: What about the “Crabgrass plant response rating” value ([2]; Rate 62 g/ha) of the same compound?
A: 4

Q: What about the “Plant response rating, Crabgrass” value ([2]; Rate 125 g/ha, Postemergence) of the same compound?
A: 4

Q: And the “Crabgrass plant response rating” value ([2]; Rate 125 g/ha)?
A: 4

Q: And the “Plant response rating, Crabgrass” value ([2]; Rate 250 g/ha, Postemergence)?
A: 7

Q: What about the “Plant response rating, Crabgrass” value [2, 12] of the same compound?
A: 9

Q: And the “Plant response rating, Nutsedge” value ([3]; Rate 62 g/ha, Postemergence)?
A: 1

Q: And the “Nutsedge plant response rating” value ([3]; Rate 62 g/ha, Preemergence)?
A: 2

Q: What about the “Nutsedge plant response rating” value ([3]; Rate 125 g/ha, Postemergence) of the same compound?
A: 2

Q: What about the “Plant response rating, Nutsedge” value ([3]; Rate 250 g/ha, Postemergence) of the same compound?
A: 3

Q: What about the “Wheat plant response rating” value ([4]; Rate 62 g/ha, Postemergence) of the same compound?
A: 3

Q: What about the “Wheat plant response rating” value ([4]; Rate 62 g/ha, Preemergence) of the same compound?
A: 0

Q: What about the “Wheat plant response rating” value ([4]; Rate 125 g/ha, Postemergence) of the same compound?
A: 3

Q: And the “Plant response rating, Wheat” value ([4]; Rate 125 g/ha, Preemergence)?
A: 1

Q: What about the “Plant response rating, Wheat” value ([4]; Rate 250 g/ha, Postemergence) of the same compound?
A: 3

Q: What about the “Plant response rating, Wheat” value [4, 12] of the same compound?
A: 3

Q: What about the “Plant response rating, Cocklebur” value ([5]; Rate 62 g/ha, Postemergence) of the same compound?
A: 8

Q: What about the “Cocklebur plant response rating” value ([5]; Rate 62 g/ha) of the same compound?
A: 2

Q: And the “Plant response rating, Cocklebur” value ([5]; Rate 125 g/ha, Postemergence)?
A: 9

Q: And the “Cocklebur plant response rating” value ([5]; Rate 125 g/ha)?
A: 5

Q: And the “Plant response rating, Cocklebur” value ([5]; Rate 250 g/ha, Postemergence)?
A: 9

Q: What about the “Plant response rating, Cocklebur” value [5, 12] of the same compound?
A: 8

Q: And the “Plant response rating, Corn” value (corn (Zea mays); Rate 62 g/ha, Postemergence)?
A: 3

Q: And the “Corn plant response rating” value (corn (Zea mays); Rate 62 g/ha)?
A: 0

Q: What about the “Plant response rating, Corn” value (corn (Zea mays); Rate 125 g/ha, Postemergence) of the same compound?
A: 3

Q: What about the “Corn plant response rating” value (corn (Zea mays); Rate 125 g/ha) of the same compound?
A: 1

Q: And the “Plant response rating, Corn” value (corn (Zea mays); Rate 250 g/ha, Postemergence)?
A: 3

Q: And the “Plant response rating, Corn” value (corn (Zea mays); [12])?
A: 1

Q: What about the “Plant response rating, Redroot pigweed” value ([6]; Rate 62 g/ha, Postemergence) of the same compound?
A: 9

Q: What about the “Redroot pigweed plant response rating” value ([6]; Rate 62 g/ha, Preemergence) of the same compound?
A: 7

Q: What about the “Redroot pigweed plant response rating” value ([6]; Rate 125 g/ha, Postemergence) of the same compound?
A: 10

Q: What about the “Redroot pigweed plant response rating” value ([6]; Rate 125 g/ha, Preemergence) of the same compound?
A: 9

Q: What about the “Plant response rating, Redroot pigweed” value ([6]; Rate 250 g/ha, Postemergence) of the same compound?
A: 10

Q: And the “Plant response rating, Redroot pigweed” value [6, 12]?
A: 10

Q: What about the “Wild oats plant response rating” value (wild oat (Avena fatua); Rate 62 g/ha, Postemergence) of the same compound?
A: 4

Q: What about the “Wild oats plant response rating” value (wild oat (Avena fatua); Rate 62 g/ha, Preemergence) of the same compound?
A: 6

Q: What about the “Wild oats plant response rating” value (wild oat (Avena fatua); Rate 125 g/ha, Postemergence) of the same compound?
A: 4

Q: What about the “Plant response rating, Wild oats” value (wild oat (Avena fatua); Rate 125 g/ha, Preemergence) of the same compound?
A: 7

Q: And the “Plant response rating, Wild oats” value (wild oat (Avena fatua); Rate 250 g/ha, Postemergence)?
A: 5

Q: What about the “Plant response rating, Wild oats” value (wild oat (Avena fatua); [12]) of the same compound?
A: 9

Q: What about the “Plant response rating, Soybean” value (soybean (Glycine max); Rate 62 g/ha, Postemergence) of the same compound?
A: 5

Q: What about the “Soybean plant response rating” value (soybean (Glycine max); Rate 62 g/ha, Preemergence) of the same compound?
A: 0

Q: What about the “Soybean plant response rating” value (soybean (Glycine max); Rate 125 g/ha, Postemergence) of the same compound?
A: 6

Q: And the “Plant response rating, Soybean” value (soybean (Glycine max); Rate 125 g/ha, Preemergence)?
A: 2

Q: And the “Plant response rating, Soybean” value (soybean (Glycine max); Rate 250 g/ha, Postemergence)?
A: 6

Q: What about the “Plant response rating, Soybean” value (soybean (Glycine max); [12]) of the same compound?
A: 2

Q: And the “Plant response rating, Giant foxtail” value ([7]; Rate 62 g/ha, Postemergence)?
A: 2

Q: And the “Giant foxtail plant response rating” value ([7]; Rate 62 g/ha, Preemergence)?
A: 4

Q: What about the “Giant foxtail plant response rating” value ([7]; Rate 125 g/ha, Postemergence) of the same compound?
A: 7

Q: What about the “Giant foxtail plant response rating” value ([7]; Rate 125 g/ha, Preemergence) of the same compound?
A: 5

Q: And the “Plant response rating, Giant foxtail” value ([7]; Rate 250 g/ha, Postemergence)?
A: 9

Q: And the “Plant response rating, Giant foxtail” value [7, 12]?
A: 9

Q: What about the “Plant response rating, Morningglory” value ([8]; Rate 62 g/ha, Postemergence) of the same compound?
A: 10

Q: What about the “Morningglory plant response rating” value ([8]; Rate 62 g/ha) of the same compound?
A: 8

Q: What about the “Morningglory plant response rating” value ([8]; Rate 125 g/ha) of the same compound?
A: 9

Q: What about the “Plant response rating, Morningglory” value ([8]; Rate 250 g/ha, Postemergence) of the same compound?
A: 10

Q: What about the “Plant response rating, Morningglory” value [8, 12] of the same compound?
A: 10

Q: And the “Plant response rating, B. signalgrass” value ([9]; Rate 62 g/ha, Postemergence)?
A: 3

Q: What about the “B. signalgrass plant response rating” value ([9]; Rate 62 g/ha) of the same compound?
A: 6

Q: And the “Plant response rating, B. signalgrass” value ([9]; Rate 125 g/ha, Postemergence)?
A: 4

Q: And the “B. signalgrass plant response rating” value ([9]; Rate 125 g/ha)?
A: 8

Q: And the “Plant response rating, B. signalgrass” value ([9]; Rate 250 g/ha, Postemergence)?
A: 5

Q: What about the “Plant response rating, B. signalgrass” value ([9]; Rate 250 g/ha, Postemergence as printed in head r139 (second section for compounds 26-50)) of the same compound?
A: 8

Q: And the “Plant response rating, Velvetleaf” value ([10]; Rate 62 g/ha, Postemergence)?
A: 8

Q: What about the “Velvetleaf plant response rating” value ([10]; Rate 62 g/ha, Preemergence) of the same compound?
A: 8

Q: And the “Velvetleaf plant response rating” value ([10]; Rate 125 g/ha, Postemergence)?
A: 8

Q: What about the “Plant response rating, Velvetleaf” value ([10]; Rate 125 g/ha, Preemergence) of the same compound?
A: 10

Q: What about the “Plant response rating, Velvetleaf” value ([10]; Rate 250 g/ha, Postemergence) of the same compound?
A: 9

Q: And the “Plant response rating, Velvetleaf” value [10, 12]?
A: 10

Q: What about the “Plant response rating, Sugarbeets” value ([11]; Rate 62 g/ha, Postemergence) of the same compound?
A: 10

Q: What about the “Sugarbeets plant response rating” value ([11]; Rate 62 g/ha, Preemergence) of the same compound?
A: 9

Q: What about the “Sugarbeets plant response rating” value ([11]; Rate 125 g/ha, Postemergence) of the same compound?
A: 10

Q: What about the “Plant response rating, Sugarbeets” value ([11]; Rate 125 g/ha, Preemergence) of the same compound?
A: 10

Q: And the “Plant response rating, Sugarbeets” value ([11]; Rate 250 g/ha, Postemergence)?
A: 10

Q: What about the “Plant response rating, Sugarbeets” value [11, 12] of the same compound?
A: 10
